From patent publication US9416145B2, “Compositions and methods for inhibiting activity of hypoxia-inducible transcription factor complex and its use for treatment of tumors” (priority 2012, dated 2016)

Experiments:
[1] = test system: VEGF protein in MCF7 cells; experiment: Western blot of VEGF protein levels in MCF7 cells; type: cell-based, human; settings: MCF7, 400 nM, 300 μM DFO
Protocol: (§1) Western blot analysis of VEGF and c-Met protein levels. MCF7 and MDA-MB-231 cells were plated in 60 mm diameter cell culture dishes (BD Falcon) to a density of 1.0×10^6 cells/mL. […] All samples contained a final concentration 0.1-0.2% v/v of DMSO. After a 6 hour incubation period, hypoxia was induced with 300 μM DFO in MCF7 and with […] in MDA-MB-231 cells. Samples were incubated for an additional 18 hours. Total cellular proteins were extracted from the cells using cell lysis buffer according to manufacturer's protocol (Cell Signaling). Protein concentrations were measured with BCA Protein assay kit (Pierce/Thermo Scientific). Equal amounts of protein samples were subjected to SDS-PAGE and electroblotted to PVDF membrane (Bio-Rad). These were probed first with an anti-VEGF mouse monoclonal (sc-57496, Santa Cruz Biotechnology) or anti c-Met rabbit polyclonal antibody (sc-10, Santa Cruz Biotechnology), stripped with Restore Western Blot Stripping Buffer (Pierce/Thermo Scientific) and re-probed with a rabbit polyclonal anti-β-actin antibody (4867, Cell Signaling).
(§2) After washing with tris-buffered saline—Tween 20 (TBST) solution, the membranes were incubated with horseradish peroxidase (HRP)-conjugated secondary antibodies (Santa Cruz Biotechnology). Signals were detected by using SuperSignal chemiluminescent kit (Pierce/Thermo Scientific).

[2] = biological target: T1, GST-tagged CH1 domain of human p300 (aa residues 323-423) (Homo sapiens, UniProt Q09472); experiment: SPR direct binding to immobilized GST-CH1-p300; set-up: direct binding to GST-CH1-p300 (in words): dose or concentration left out as unconfirmed
T1 construct: CH1 domain of human p300 (aa residues 323-423)
T1 sequence (Q09472 323-423): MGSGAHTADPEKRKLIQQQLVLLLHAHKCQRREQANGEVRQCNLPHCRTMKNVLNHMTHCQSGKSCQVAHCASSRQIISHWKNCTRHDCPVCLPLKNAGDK
Source text: Prior to undertaking more rigorous biophysical and biological characterization of dimeric ETPs LS69 and LS72, it was important to first characterize its thermodynamic binding properties toward the target, p300 CH1 domain. We conducted SPR experiments in the presence of DTT to mimic the reducing environment that would be found in the intracellular milieu. From the SPR sensorgrams it is clear that both LS69 and LS72 bind directly to the GST-tagged CH1 domain of human p300 (aa residues 323-423) with high affinity.

LOX mRNA in A549 cells = experiment: qRT-PCR of LOX mRNA in A549 cells; type: cell-based; settings: A549, LS72 400 nM, hypoxia bag 48 h
Protocol: FIGS. 14 (A) qRT-PCR data for LOX and (B) CXCR4 genes in A549 cells treated with LS72. Hypoxia was induced by hypoxia bag. Cells were maintained in F-12K medium with 2% serum. After reaching 65% confluency the cells were grown in serum free media and treated with LS72 (400 nM). Hypoxia was induced with DFO (300 μM) for 48 h. Error bars are s.e.m. of experiments performed in triplicate. **P<0.01, t test.
After tests with various serum levels in the media and hypoxia induction methods, the conditions that worked remarkably and consistently well for the induction of HIF1α dependent genes were to keep A549 cells in 2% serum followed by treating cells with compound or control in the media with 0.2% serum for 48 h (FIG. 13). Under these conditions while hypoxia bag was the best option for induction of the LOX gene, the best hypoxic response leading to upregulation of many other HIF1α inducible genes was treatment with 300 μM DFO.

[3] = test system: global transcript levels (28,869 transcripts) in MCF7 cells; experiment: Gene expression profiling with Affymetrix Human Gene ST 1.0 Arrays; type: cell-based
Source text: Since the target proteins p300 and CBP are pleiotropic multidomain coactivators, their CH1 regions contain binding sites for multiple transcription factors. One potential concern of the use of ETPs for gene regulation is specificity, because inhibiting the interaction between CBP/p300 and transcription factors other than HIF1α may result in large numbers of affected genes. To rule out nonspecific genome-wide effects of ETPs, we conducted in vitro gene expression profiling experiments with LS72 using Affymetrix Human Gene ST 1.0 Arrays containing oligonucleotide sequences representing 28,869 transcripts.^67,68
In order to interrogate cellular genome for global effects, MCF7 cells treated with LS72 at 400 nM were used. Treatment of cells with LS72 at a concentration of 400 nM affected the expression of only 178 genes at ≧2.0 fold levels (FIG. 20). By comparison, treatment with DFO alone changed levels of 329 genes ≧2.0 fold. […] In cells treated with LS72 under DFO-induced hypoxia conditions, we identified 190 genes were affected by this compound. Clustering analysis was performed to identify similarities in the expression profiles between different treatments (FIG. 19).

[4] = MTT cytotoxicity assay in MCF7 cells; type: cell-based; settings: human, MCF7, 24 h treatment
Protocol: FIG. 10 MTT cytotoxicity assay for LS72 in MCF7 cells. Cells were maintained in RPMI-1640 media supplemented with 10% FBS. Cells were treated with different concentrations of LS72 for 24 hours and the amount of purple formazan formed was determined via spectrophotometry.
Based on this EC50 value of LS72 in MCF7 cells we chose to measure its effect on HIF inducible transcription at a maximum concentration of 400 nM in MCF7 cells. This is important in order to minimize the nonspecific effects on mRNA levels due to reduction in cell viability.

[5] = test system: c-Met protein in MDA-MB-231 cells; experiment: Western blot of c-Met protein levels in MDA-MB-231 cells; type: cell-based, human; settings: MDA-MB-231, 400 nM, HIF1α induced with 150 μM CoCl2
Protocol: as §1, §2

[6] = MCF7, hypoxic induction with DFO (300 μM), LS72 400 nM

CN1C(=O)[C@]2(Cc3ccc(CCc4ccc(C[C@@]56SS[C@@](CO)(C(=O)N5C)N(C)C6=O)cc4)cc3)SS[C@@]1(CO)C(=O)N2C (racemic) [LS72, 4,4′-((ethane-1,2-diylbis(4,1-phenylene))bis(methylene))bis(1-(hydroxymethyl)-5,7-dimethyl-2,3-dithia-5,7-diazabicyclo[2.2.2]octane-6,8-dione)]
VEGF protein levels (western blot) [1]: significant downregulation
direct binding to GST-CH1-p300 (in words) [2]: bind directly
kon ([2]; in the presence of DTT, read-out: rate of association (ka)): 4250 M⁻¹ s⁻¹
Kd ([2]; off rate/on rate, read-out: binding constant KD): 3620 nM
LOX transcriptional activity (in words) (LOX mRNA in A549 cells): significant downregulation in the transcriptional activity
number of genes downregulated ≧2.0 fold ([3]; MCF7, LS72 400 nM): 88 genes
number of genes upregulated by ≧2.0 fold ([3]; MCF7, LS72 400 nM): 90 genes
number of genes with expression affected at ≧2.0 fold levels ([3]; MCF7, LS72 400 nM): 178 genes
number of genes affected under DFO-induced hypoxia ([3]; MCF7, LS72 under DFO-induced hypoxia conditions): 190 genes
CAV1 (Entrez 857) expression change, microarray [3, 6]: −1.3
LOXL2 (Entrez 4017) expression change, microarray [3, 6]: −1.4
MET (Entrez 4233) expression change, microarray [3, 6]: −2.2
SLC5A6 (Entrez 8884) expression change, microarray [3, 6]: −2.4
SLC5A8 (Entrez 160728) expression change, microarray [3, 6]: −1.4
SLC7A2 (Entrez 6542) expression change, microarray [3, 6]: −2.5
SLC9A2 (Entrez 6549) expression change, microarray [3, 6]: −1.8
SLC9A3R1 (Entrez 9368) expression change, microarray [3, 6]: −1.6
SLC25A12 (Entrez 8604) expression change, microarray [3, 6]: −1.8
SLC25A15 (Entrez 10166) expression change, microarray [3, 6]: −1.5
SLC26A2 (Entrez 1836) expression change, microarray [3, 6]: −1.4
SLC27A4 (Entrez 10999) expression change, microarray [3, 6]: −1.4
SLC35A1 (Entrez 10559) expression change, microarray [3, 6]: −2.2
SLC35D1 (Entrez 23169) expression change, microarray [3, 6]: −3.1
SLC38A9 (Entrez 153129) expression change, microarray [3, 6]: −1.5
SLC39A11 (Entrez 201266) expression change, microarray [3, 6]: −1.9
TFRC (Entrez 7037) expression change, microarray [3, 6]: −1.5
TGFB3 (Entrez 7043) expression change, microarray [3, 6]: −1.5
EC50 at 24 h [4]: 547 nM
c-Met protein levels (western blot) [5]: significant downregulation
